Measured values as given in US8759519B2, “Mono-hydrochloric salts of an inhibitor of histone deacetylase” (Janssen Pharmaceutica NV, priority 2007, dated 2014).
Where a name gives a salt, the structure may show the parent alone.

Assays:
Format in all cases: physicochemical
[1] = Crystallographic stability after storage in open conditions (TGA, DSC, XRPD, IR); parameters: key to XRD / IR: ~Ref: identical with reference; Cryst.: crystalline; conditions: for IR / XRD: Table G
Protocol: The stability of the crystal structure of Form I was studied after storage of the compound in open conditions for a period of six weeks at room temperature (RT) under <5%, 56% and 75% relative humidity (RH), 50° C. and 40° C./75% RH.
The samples are analyzed with thermogravimetry (TGA), differential scanning calorimetry (DSC), X-ray powder diffraction (XRPD) and infrared spectroscopy (IR).
The stability of the crystal structure of Form II was studied after storage of the compound in open conditions for a period of six weeks at room temperature (RT) under <5%, 56% and 75% relative humidity (RH), 50° C. and 40° C./75% RH.
The samples were analyzed with thermogravimetry (TGA), differential scanning calorimetry (DSC), X-ray powder diffraction (XRPD) and infrared spectroscopy (IR).

[2] = Chemical stability after storage in open conditions (HPLC, visual inspection); conditions: for HPLC Sum of impurities / Appearance: hydrochloride
Protocol: Form I was stored in different open conditions for periods of 1, 4 and 8 weeks.
These conditions are 40° C./75% RH, 50° C., RT/<5% RH, RT/56% RH, RT/75% RH and 0.3 da ICH light.
The compounds were analyzed after storage by HPLC and by visual inspection.
Form II was stored in different open conditions for periods of 1, 4 and 8 weeks. These conditions were 40° C./75% RH, 50° C., RT/<5% RH, RT/56% RH, RT/75% RH and 0.3 da ICH light.

[3] = Adsorption/desorption of water (dynamic vapor sorption)
Protocol: The ADS/DES data were obtained using a SMS dynamic vapor sorption model DVS-1 and the weight change was recorded with tespect to the atmospheric humidity at 25° C. The weight of the samples was about 17 mg of Form I and 24 mg of Form II. The samples were dried for 60 min under dry nitrogen. The equilibrium was lower or equal to 0.01%/min. for minimal 15 min and maximal 60 min. The data interval was 0.05% or 2.0 min.
Relative Humidity (%) measurement points were:
The adsorption and desorption of water at 25° C. at different conditions of relative humidity was investigated on 17 mg Form I.
The weight change as a function of relative humidity was registered.
The adsorption and desorption of water at 25° C. at different conditions of relative humidity was investigated on about 24 mg Form II

[4] = 0 days (reference), hydrochloride
[5] = extra endothermic signal, six weeks open, 40° C./75% RH
[6] = extra endothermic signal, six weeks open, 50° C.
[7] = extra endothermic signal, six weeks open, RT/56% RH
[8] = extra endothermic signal, six weeks open, RT/75% RH
[9] = extra endothermic signal, six weeks open, RT/<5% RH
[10] = six weeks open, 40° C./75% RH, hydrochloride
[11] = six weeks open, 50° C., hydrochloride
[12] = six weeks open, RT/<5% RH, hydrochloride

## Cn1cc(CNCC2CCN(c3ncc(C(=O)NO)cn3)CC2)c2ccccc21 [Form II, N-hydroxy-2-[4-[[[(1-methyl-1H-indol-3-yl)methyl]amino]methyl]-1-piperidinyl]-5-pyrimidinecarboxamide hydrochloride]
[1]; 0 days (reference)
  DSC Max (° C.): ±198 °C
  TGA <170° C.: 0.4%
[1]; [4]
  App (appearance): white
  TGA <100° C.: 3.3%
[1]; six weeks open, 40° C./75% RH
  IR: ≠Ref
  XRD: ≠Ref
  DSC Max (° C.): ±198 °C
  TGA <170° C.: 0.2%
[1]; six weeks open, 50° C.
  IR: ~Ref
  XRD: ~Ref
  DSC Max (° C.): ±198 °C
  TGA <170° C.: 0.2%
[1]; six weeks open, RT/56% RH
  IR: ≠Ref
  XRD: ≠Ref
  DSC Max (° C.): ±198 °C
  TGA <170° C.: 0.3%
[1]; six weeks open, RT/75% RH
  IR: ≠Ref
  XRD: ≠Ref
  DSC Max (° C.): ±198 °C
  TGA <170° C.: 0.3%
[1]; six weeks open, RT/<5% RH
  IR: ~Ref
  XRD: ~Ref
  DSC Max (° C.): ±198 °C
  TGA <170° C.: 0.4%
[1]; extra endothermic signal (solvent evaporation), 0 days (reference)
  DSC Extra (° C.): 71.5 °C
[1]; extra endothermic signal, 0 days (reference)
  DSC Extra, heat of the signal: (78 J/g)
[1]; [5]
  DSC Extra (° C.): 83.9 °C
  DSC Extra, heat of the signal: (151 J/g)
[1]; [6]
  DSC Extra (° C.): 74.6 °C
  DSC Extra, heat of the signal: (66 J/g)
[1]; [7]
  DSC Extra (° C.): 87.1 °C
  DSC Extra, heat of the signal: (144 J/g)
[1]; [8]
  DSC Extra (° C.): 85.2 °C
  DSC Extra, heat of the signal: (153 J/g)
[1]; [9]
  DSC Extra (° C.): 75.1 °C
  DSC Extra, heat of the signal: (68 J/g)
[1]; six weeks open storage under the different conditions, hydrochloride
  crystallographic stability (conclusion): crystallographically not stable
[1]; [10]
  App (appearance): pink
  TGA <100° C.: 6%
[1]; [11]
  App (appearance): white
  TGA <100° C.: 2.1%
[1]; six weeks open, RT/56% RH, hydrochloride
  TGA <100° C.: 5.2%
[1]; six weeks open, RT/75% RH, hydrochloride
  TGA <100° C.: 4.9%
[1]; [12]
  App (appearance): white
  TGA <100° C.: 1.9%
[2]; 0.3 da ICH light (1 week)
  HPLC Sum of impurities: 7.42%
[2]; 40° C./75% RH, 1 week
  HPLC Sum of impurities: 4.96%
[2]; 40° C./75% RH, 4 weeks
  Appearance: pink
  HPLC Sum of impurities: 4.99%
[2]; 40° C./75% RH, 8 weeks
  Appearance: pink
  HPLC Sum of impurities: 4.9%
[2]; 50° C., 1 week
  Appearance: white
  HPLC Sum of impurities: 4.96%
[2]; 50° C., 4 weeks
  Appearance: white
  HPLC Sum of impurities: 5%
[2]; 50° C., 8 weeks
  HPLC Sum of impurities: 4.9%
[2]; RT/56% RH, 4 weeks
  HPLC Sum of impurities: 5.05%
[2]; RT/56% RH, 8 weeks
  HPLC Sum of impurities: 4.94%
[2]; RT/75% RH, 4 weeks
  HPLC Sum of impurities: 5.03%
[2]; RT/75% RH, 8 weeks
  HPLC Sum of impurities: 4.97%
[2]; RT/<5% RH, 4 weeks
  Appearance: white
  HPLC Sum of impurities: 5.1%
[2]; RT/<5% RH, 8 weeks
  Appearance: white
  HPLC Sum of impurities: 4.98%
[2]; Reference (1 week)
  Appearance: white
  HPLC Sum of impurities: 5.04%
[2]; after storage in 0.3 da ICH light
  discoloration: white to or orange-brown
[2]; after storage in humid conditions RT/56% RH, RT/75% RH and 40° C./75% RH and elevated temperature 50° C.
  discoloration: white to pink
[2]; storage in 0.3 da ICH light conditions
  sensitivity towards light (sum of impurities): showed a sensitivity towards light
[3]; 25° C.
  drying during the desorption cycle: dries completely
[3]; 25° C., adsorption/desorption test, hydrochloride
  hygroscopic behavior: hygroscopic
[3]; 25° C., high relative humidity, hydrochloride
  water adsorbed at high relative humidity: up to 9.6%
[3]; 25° C., hydrochloride
  crystallinity during the adsorption/desorption test: remains crystalline
[3]; dried under dry nitrogen
  weight loss during the initial drying step: 1.67%
